According to ChEMBL document CHEMBL3044944, “Synthesis and evaluation of meta substituted 1-(aryloxypropyl)-4-(chloroaryl) piperazines as potential atypical antipsychotics” (2013):
The source made the active and inactive calls. The rule behind the calls is not given here.

What was measured:
Mus musculus [1] = experiment: Antipsychotic activity in Mus musculus albino lyka (mouse) assessed as reversal of apomorphine-induced stereotypy at 5 to 10 mg/kg, ip administered 10 min prior to apomorphine challenge measured after 10 to 30 min; assay type: functional, organism-based
Mus musculus [2] = experiment: Antipsychotic activity in Mus musculus albino lyka (mouse) assessed as reversal of apomorphine-induced mesh climbing at 5 to 10 mg/kg, ip administered 10 min prior to apomorphine challenge measured after 10 to 30 min; assay type: functional, organism-based
Mus musculus [3] = experiment: Antipsychotic activity in ip dosed Mus musculus albino lyka (mouse) assessed as reversal of apomorphine-induced mesh climbing administered 10 min prior to apomorphine challenge measured after 10 to 30 min; assay type: functional; conditions: for ED50: Mus musculus, albino lyka, ip

For O=Cc1cccc(OCCCN2CCN(C(=O)c3ccc(Cl)cc3)CC2)c1, the Activity (Mus musculus [1]) was “Active” and the Activity (Mus musculus [2]) was “inactive”.

For CC(=O)c1cccc(OCCCN2CCN(C(=O)c3ccccc3Cl)CC2)c1, the Activity (Mus musculus [1]) was “Active” and the Activity (Mus musculus [2]) was “inactive”.

With O=Cc1cccc(OCCCN2CCN(Cc3ccccc3Cl)CC2)c1 the Activity (Mus musculus [1]) was “inactive”, the logED50 (Mus musculus [3]) was 0.799 and the ED50 (Mus musculus [3]) was 6.3 mg/kg.

In the case of O=Cc1cccc(OCCCN2CCN(C(=O)c3ccccc3Cl)CC2)c1, the Activity (Mus musculus [1]) is reported as “Active” and the Activity (Mus musculus [2]) is reported as “inactive”.

CC(=O)c1cccc(OCCCN2CCN(Cc3ccccc3Cl)CC2)c1 was tested, and the Activity (Mus musculus [1]) was “inactive”, the logED50 (Mus musculus [3]) was 0.903 and the ED50 (Mus musculus [3]) was 8 mg/kg.

With O=Cc1cccc(OCCCN2CCN(Cc3ccc(Cl)cc3)CC2)c1 the Activity (Mus musculus [1]) was “Active”, the logED50 (Mus musculus [3]) was 1 and the ED50 (Mus musculus [3]) was 10 mg/kg.

With CC(=O)c1cccc(OCCCN2CCN(C(=O)c3ccc(Cl)cc3)CC2)c1 the Activity (Mus musculus [1]) was “Active” and the Activity (Mus musculus [2]) was “inactive”.

In the case of CC(=O)c1cccc(OCCCN2CCN(Cc3ccc(Cl)cc3)CC2)c1, the Activity (Mus musculus [1]) is reported as “inactive”, the logED50 (Mus musculus [3]) is reported as 0.857 and the ED50 (Mus musculus [3]) is reported as 7.2 mg/kg.
